Measurements taken from US9988429B2, “Glucagon analogues” (Zealand Pharma A/S, priority 2013, dated 2018).
Starred links: 1 amine or outer side, 2 acyl side, 3 side chain; linkers in the order of their positions; H or OH if unused. Non-standard residues stand in square brackets, D forms with d. Residues, ends and D or L forms follow the SMILES beside them. Groups on a side chain read outwards from the residue. *: point of attachment. γGlu = O=C(O)[C@H](CCC(=O)[*:2])N[*:1]; Palmitoyl = CCCCCCCCCCCCCCCC(=O)*; Ac4c = NC1(C(=O)O)CCC1; Aib = CC(C)(N)C(=O)O

Experiments:
Assay type in all cases: cell-based
[1] = target: T1, endogenous GLP-1 receptors (Mus musculus, UniProt O35659); experiment: Agonistic activity on endogenous GLP-1 receptor, cAMP in murine insulinoma cell line; conditions: intracellular cAMP
T1 construct: Agonistic activity of the test compounds on endogenous GLP-1 receptors; endogenous in cells
T1 sequence (O35659 22-463): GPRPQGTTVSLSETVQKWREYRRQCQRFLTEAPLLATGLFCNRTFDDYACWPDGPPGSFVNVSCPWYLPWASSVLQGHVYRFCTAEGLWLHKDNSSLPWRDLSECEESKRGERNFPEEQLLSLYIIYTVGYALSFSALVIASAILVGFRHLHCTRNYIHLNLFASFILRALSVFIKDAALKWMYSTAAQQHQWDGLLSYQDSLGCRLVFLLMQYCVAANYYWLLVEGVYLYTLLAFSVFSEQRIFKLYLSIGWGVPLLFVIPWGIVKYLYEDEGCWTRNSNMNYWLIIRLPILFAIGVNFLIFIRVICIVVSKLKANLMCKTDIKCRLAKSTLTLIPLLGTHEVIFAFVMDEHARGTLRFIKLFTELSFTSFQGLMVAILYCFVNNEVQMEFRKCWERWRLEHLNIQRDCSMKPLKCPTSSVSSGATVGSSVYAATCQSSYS
Procedure: Agonistic activity of the test compounds on endogenous GLP-1 receptors was determined using a murine insulinoma cell line. Intracellular cAMP was used as an indicator of receptor activation.
Cells were cultured for 24 h at a density of 10,000 cells/well in a 384-well plate. Medium was removed and 10 μL KRBH buffer (NaCl 130 mM, KCl 3.6 mM, NaH2PO4 0.5 mM, MgSO4 0.5 mM, CaCl2 1.5 mM) containing test compound or GLP-1 (at increasing concentrations from 0.1 pM to 100 nM) or solvent control (0.1% (v/v) DMSO) was added to the wells for 15 minutes at a temperature of 26° C.
The cellular cAMP content is measured using the AlphaScreen cAMP Functional Assay Kit (Perkin Elmer). Measurement was performed using the Envision (PerkinElmer) according to manufacturer's recommendations.
All measurements were performed in quadruplicate.
The resulting cAMP curves were plotted as absolute cAMP concentrations (nM) over log (test compound concentration) and analyzed using the curve fitting program XLfit.

[2] = target: T2, human glucagon-like peptide 1 receptor (GLP-1R) (Homo sapiens, UniProt P43220); experiment: GLP-1 receptor efficacy assay (cAMP AlphaScreen, CHO cells); conditions: for Ratio GLP-1/Glucagon: EC50 [GLP-1R] / EC50 [Glucagon-R], human receptors in CHO-K1; for EC50: cAMP formation, CHO cells expressing human GLP-1-R, read-out: EC50 hGLP-1R CHO-K1
T2 construct: expressed in transfected cells
T2 sequence (P43220 24-463): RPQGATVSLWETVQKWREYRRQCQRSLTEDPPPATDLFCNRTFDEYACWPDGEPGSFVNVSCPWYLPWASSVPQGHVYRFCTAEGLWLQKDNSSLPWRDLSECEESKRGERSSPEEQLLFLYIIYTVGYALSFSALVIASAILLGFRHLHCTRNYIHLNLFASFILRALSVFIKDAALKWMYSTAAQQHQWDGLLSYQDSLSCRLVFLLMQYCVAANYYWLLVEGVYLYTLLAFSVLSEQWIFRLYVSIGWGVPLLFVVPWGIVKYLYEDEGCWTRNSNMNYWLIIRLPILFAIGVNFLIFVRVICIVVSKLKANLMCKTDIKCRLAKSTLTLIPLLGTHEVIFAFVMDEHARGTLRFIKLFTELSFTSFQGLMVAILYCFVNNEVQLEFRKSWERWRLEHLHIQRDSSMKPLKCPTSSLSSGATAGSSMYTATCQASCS
Outline: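 Stably transfected CHO clones expressing human receptor, stimulated 15 min at room temperature with increasing peptide concentrations in KRBH (10 mM HEPES, 5 mM NaHCO3, 0.1% BSA) plus 0.1 mM IBMX. Cells lysed, and cAMP quantified by AlphaScreen after 1 h bead incubation in the dark.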

[3] = target: T3, human glucagon receptor (Glucagon-R) (Homo sapiens, UniProt P47871); experiment: Glucagon receptor efficacy assay (cAMP AlphaScreen, CHO cells); conditions: cAMP formation, CHO cells expressing human Glucagon-R; read-out: EC50 hGCGR CHO-K1
T3 construct: expressed in transfected cells
T3 sequence (P47871 26-477): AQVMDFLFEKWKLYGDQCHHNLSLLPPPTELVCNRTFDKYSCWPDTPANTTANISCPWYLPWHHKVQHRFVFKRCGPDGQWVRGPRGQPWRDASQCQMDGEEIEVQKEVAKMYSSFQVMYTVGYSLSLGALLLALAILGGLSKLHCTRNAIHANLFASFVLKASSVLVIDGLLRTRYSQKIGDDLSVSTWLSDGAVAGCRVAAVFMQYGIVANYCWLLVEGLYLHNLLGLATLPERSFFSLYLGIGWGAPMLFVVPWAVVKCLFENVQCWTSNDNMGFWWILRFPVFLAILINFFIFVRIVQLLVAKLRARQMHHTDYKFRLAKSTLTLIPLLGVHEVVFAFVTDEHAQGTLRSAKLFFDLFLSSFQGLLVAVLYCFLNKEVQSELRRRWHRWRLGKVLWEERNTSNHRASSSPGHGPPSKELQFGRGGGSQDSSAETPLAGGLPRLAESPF
Procedure: The mammalian expression vectors encoding the Glucagon-R or the GLP-1-R were transfected into Chinese hamster ovary (CHO) cells by the Attractene method. Stably expressing clones were obtained by Zeocin selection (250 μg/mL) upon limited dilution of cells resistant to the selection pressure. […] One Glucagon-R expressing clone and one GLP-1-R expressing clone were chosen for compound profiling.
CHO cells expressing the human Glucagon-R, or human GLP-1-R were seeded 24 hours prior to the assay at 30,000 cells per well in 96-well microtiter plates in culture in 100 μl growth medium. On the day of analysis, growth medium was removed and the cells were washed once with 200 μl of assay buffer (Krebs-Ringer-buffer—KRBH). The buffer was removed and the cells were incubated for 15 min at room temperature in 10 μl KRBH (KRBH+10 mM HEPES, 5 mM NaHCO3, 0.1% (V/V) BSA) with 0.1 mM IBMX in deionized water containing increasing concentrations of test peptides. The reaction was stopped by the addition of lysis buffer (0.1% w/v BSA, 5 mM HEPES, 0.3% v/v Tween-20). After cell lysis for 10 min at room temperature, lysates were transferred to 384-well plates and 10 μl of acceptor/donorbead mixture as contained in the AlphaScreen™ cAMP Functional Assay Kit was added. After one hour of incubation at room temperature in the dark, the cAMP content was determined applying the AlphaScreen™ cAMP Functional Assay Kit from Perkin-Elmer according to manufacturer instructions. […] The GLP-1/glucagon ratio is calculated as defined earlier.

SMILES	EC50 [1]	Ratio GLP-1/Glucagon [2]	EC50 [3]	EC50 [2]
CCCCCCCCCCCCCCCC(=O)N[C@@H](CCC(=O)NCCCC[C@H](NC(=O)[C@H](CO)NC(=O)[C@H](CC(=O)O)NC(=O)[C@H](CC(C)C)NC(=O)[C@H](Cc1ccc(O)cc1)NC(=O)[C@H](CCCCN)NC(=O)[C@H](CO)NC(=O)[C@H](Cc1ccc(O)cc1)NC(=O)[C@H](CC(=O)O)NC(=O)[C@H](CO)NC(=O)[C@@H](NC(=O)[C@H](Cc1ccccc1)NC(=O)[C@@H](NC(=O)CNC(=O)[C@H](Cc1c[nH]cn1)NC(=O)C1(NC(=O)[C@@H](N)Cc2c[nH]cn2)CCC1)[C@@H](C)O)[C@@H](C)O)C(=O)N[C@@H](C)C(=O)N[C@@H](C)C(=O)N[C@@H](Cc1c[nH]cn1)C(=O)N[C@@H](CC(=O)O)C(=O)N[C@@H](Cc1ccccc1)C(=O)N[C@H](C(=O)N[C@@H](CCC(=O)O)C(=O)N[C@@H](Cc1c[nH]c2ccccc12)C(=O)N[C@@H](CC(C)C)C(=O)N[C@@H](CC(C)C)C(=O)N[C@@H](CO)C(=O)N[C@@H](C)C(N)=O)C(C)C)C(=O)O [Compound 9] (H-H[Ac4c]HGTFTSDYSKYLDSK([γGlu-Palmitoyl])AAHDFVEWLLSA-NH2)	0.21 nM	1.65	0.2 nM	
CCCCCCCCCCCCCCCC(=O)N[C@@H](CCC(=O)NCCCC[C@H](NC(=O)[C@H](CCC(=O)O)NC(=O)[C@H](CC(=O)O)NC(=O)[C@H](CC(C)C)NC(=O)[C@H](Cc1ccc(O)cc1)NC(=O)[C@H](CCCCN)NC(=O)[C@H](CO)NC(=O)[C@H](Cc1ccc(O)cc1)NC(=O)[C@H](CC(=O)O)NC(=O)[C@H](CO)NC(=O)[C@@H](NC(=O)[C@H](Cc1ccccc1)NC(=O)[C@@H](NC(=O)CNC(=O)[C@H](CCC(N)=O)NC(=O)[C@H](CC)NC(=O)[C@@H](N)Cc1c[nH]cn1)[C@@H](C)O)[C@@H](C)O)C(=O)N[C@@H](C)C(=O)N[C@@H](C)C(=O)N[C@@H](CCCCN)C(=O)N[C@@H](CC(=O)O)C(=O)N[C@@H](Cc1ccccc1)C(=O)N[C@H](C(=O)N[C@@H](CCC(=O)O)C(=O)N[C@@H](Cc1c[nH]c2ccccc12)C(=O)N[C@@H](CC(C)C)C(=O)N[C@@H](CCC(=O)O)C(=O)N[C@@H](CO)C(=O)N[C@@H](C)C(N)=O)[C@@H](C)CC)C(=O)O [Compound 10]		2.7	0.1 nM	0.27 nM
CCCCCCCCCCCCCCCC(=O)N[C@@H](CCC(=O)NCCCC[C@H](NC(=O)[C@H](CCC(=O)O)NC(=O)[C@H](CC(=O)O)NC(=O)[C@H](CC(C)C)NC(=O)[C@H](Cc1ccc(O)cc1)NC(=O)[C@H](CCCCN)NC(=O)[C@H](CO)NC(=O)[C@H](Cc1ccc(O)cc1)NC(=O)[C@H](CC(=O)O)NC(=O)[C@H](CO)NC(=O)[C@@H](NC(=O)[C@H](Cc1ccccc1)NC(=O)[C@@H](NC(=O)CNC(=O)[C@H](CCC(N)=O)NC(=O)C(C)(C)NC(=O)[C@@H](N)Cc1c[nH]cn1)[C@@H](C)O)[C@@H](C)O)C(=O)N[C@@H](C)C(=O)N[C@@H](C)C(=O)N[C@@H](CCCCN)C(=O)N[C@@H](CC(=O)O)C(=O)N[C@@H](Cc1ccccc1)C(=O)N[C@H](C(=O)N[C@@H](CCC(=O)O)C(=O)N[C@@H](Cc1c[nH]c2ccccc12)C(=O)N[C@@H](CC(C)C)C(=O)N[C@@H](CCC(=O)O)C(=O)N[C@@H](CCC(=O)O)C(=O)N[C@@H](CCC(=O)O)C(N)=O)[C@@H](C)CC)C(=O)O [Compound 17] (H-H[Aib]QGTFTSDYSKYLDEK([γGlu-Palmitoyl])AAKDFIEWLEEE-NH2)	0.21 nM	3.38		0.27 nM
